How the values were obtained:
[1] = Storage of AS101 samples in scintillation glass bottles with aluminum laminated non-sealed caps; type: physicochemical; details: 30 days at ambient temperature, scintillation glass bottle with non-sealed cap
Method: FIGS. 1A-B present images of the content and packaging components of the containers in which the AS101 powder (FIG. 1A) and the […] AS101 […] solution in DMSO (FIG. 1B) were provided, upon 30 days of storage at ambient temperature.
The white crystalline coarse powder was placed in a scintillation glass bottle with a non-sealed cap.
A 20% (by weight) solution of AS101 in DMSO was prepared. The solution appeared as a yellow liquid with a cloudy dispersion evolving upon mixing. […] However, some unidentified particles were observed.

rats = details: intravenous and intramuscular administration; cited from earlier work
[2] = AS101 solubility profile: solubility and stability (by coloration detection) in various solvents; type: physicochemical; details: hydroxycellulose
[3] = Compatibility with aluminum tube packaging and metal equipment; type: physicochemical; details: any contact with metal equipment
[4] = AS101 solubility profile: solubility and stability (by coloration detection) in various solvents; type: physicochemical; details: for Coloration / Solubility: 10% by weight AS101, ambient temperature, after 24 hours
Method: In a search for an improved formulation for topical application, the solubility and stability (by coloration detection) of AS101 in various hydrophilic and lipophilic solvents were determined. Since it is commonly known that topically applied formulations have better skin absorption and feel when the active pharmaceutical ingredient is solubilized or is in a molecular form, a desirable topical formulation should be characterized by high solubility and/or dispersability of the active ingredient therein.
Thus, solutions containing 10% by weight of AS101 in each solvent, were prepared by mixing AS101 in the solvent at ambient temperature.

[5] = Heating the mixture of AS101 and propylene glycol; type: physicochemical
[6] = Microscopic evaluation of samples and polarized light crystallography; type: physicochemical
Description: Microscopic Evaluation of Samples and Polarized Light Crystallography: Formulation Stability Measurements

Cl[TeH]1(Cl)(Cl)OCCO1 [AS101, ammonium trichloro(dioxyethylene-O,O′)tellurate]
State of the aluminum laminate cap after storage [1]: chemically and physically decomposed | LD50 relative to the immunologically effective dose (rats): 500-1000 folds | Solution coloration (compatibility) [2]: unacceptable solution coloration | Color upon contact with metal equipment [3]: dark, black color | Coloration ([4]; 1% acetic acid): No | Solubility ([4]; 1% acetic acid): No | Coloration ([4]; Alkyl benzoate): No | Solubility ([4]; Alkyl benzoate): No | Coloration ([4]; Arlamol E): No | Solubility ([4]; Arlamol E): No | Coloration ([4]; Butyleneglycol): No | Solubility ([4]; Butyleneglycol): Yes | Coloration ([4]; DMI): No | Solubility ([4]; DMI): No | Coloration ([4]; DMSO): No | Solubility ([4]; DMSO): Yes | Coloration ([4]; Glycofurol): No | Solubility ([4]; Glycofurol): Yes | Coloration ([4]; Hexylene glycol): No | Solubility ([4]; Hexylene glycol): No | Coloration ([4]; IPM): No | Solubility ([4]; IPM): No | Coloration ([4]; MCT oil): No | Solubility ([4]; MCT oil): No | Coloration ([4]; Mineral oil): No | Solubility ([4]; Mineral oil): No | Coloration ([4]; PEG 200): No | Solubility ([4]; PEG 200): Yes | Coloration ([4]; PEG 400): No | Solubility ([4]; PEG 400): Yes | Coloration ([4]; Propylene Glycol): No | Solubility ([4]; Propylene Glycol): Yes | Coloration ([4]; Silicone oil): Black | Solubility ([4]; Silicone oil): No | Coloration ([4]; Transcutol): No | Solubility ([4]; Transcutol): Yes | Precipitation or re-crystallization of AS101 ([4]; amphiphilic glycolic solvents: PEG, butyleneglycol, gycofurol, propylene glycol and TRANSCUTOL, during the tested period): no precipitation or re-crystallization | Change upon heating the mixture of AS101 and propylene glycol [5]: no change was observed | Crystals under polarized light ([6]; polarized light): distinct crystals producing birefrigerence | Particle diameter ([6]; powder): 20-40 microns

Source: patent US9216197B2, “Topical formulations of tellurium-containing compounds” (BIOMAS LTD., priority 2006, dated 2015)
